Our source for the IC50 values is patent US6596687B1, “Cell adhesion inhibitors” (Biogen, Inc., priority 1995, dated 2003).

The target of the assay is T1, VLA4 (Homo sapiens, UniProt P05556+P13612).
T1 construct: endogenous in cells; host or cells: Ramos cells
Briefly: Inhibition of VLA4-dependent adhesion of Ramos cells to BSA-CS1. Format: cell-based. The following applies: Ramos cells, BSA-CS1 coated wells, 2 mM MnCl2, 30 minutes at room temperature; read-out: IC50. The essentials: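 BCECF-AM-labelled Ramos cells in Tris buffer pH 7.4 with 2 mM MnCl2 were added with compound to wells coated with BSA-conjugated Cys-Tyr-CS1 peptide (1 μg/mL). Cells and compound were incubated for 30 min at room temperature, in triplicate. Inhibition was quantified from bound fluorescence against no-compound controls, with uncoated wells used for nonspecific binding.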

The structures appear in SMILES notation. Numbered stars: 1 amine (or outer) side, 2 acyl side, 3 side chain; on linkers, the order of the positions; unused ones are H or OH. Square brackets hold non-standard residues; d marks the D form. Peptide text beside a SMILES is read from it. * marks the point of attachment. X2 = O=C(Cc1ccc(N[*:1])cc1)[*:2]; PhAc = O=C(Cc1ccccc1)*; CO = O=C([*:1])[*:2]; Bz = O=C(c1ccccc1)*; NHPh = c1ccc(N*)cc1; Bn = c1ccc(C*)cc1; NHBu = CCCCN*

T1 sequence (P13612 34-1032): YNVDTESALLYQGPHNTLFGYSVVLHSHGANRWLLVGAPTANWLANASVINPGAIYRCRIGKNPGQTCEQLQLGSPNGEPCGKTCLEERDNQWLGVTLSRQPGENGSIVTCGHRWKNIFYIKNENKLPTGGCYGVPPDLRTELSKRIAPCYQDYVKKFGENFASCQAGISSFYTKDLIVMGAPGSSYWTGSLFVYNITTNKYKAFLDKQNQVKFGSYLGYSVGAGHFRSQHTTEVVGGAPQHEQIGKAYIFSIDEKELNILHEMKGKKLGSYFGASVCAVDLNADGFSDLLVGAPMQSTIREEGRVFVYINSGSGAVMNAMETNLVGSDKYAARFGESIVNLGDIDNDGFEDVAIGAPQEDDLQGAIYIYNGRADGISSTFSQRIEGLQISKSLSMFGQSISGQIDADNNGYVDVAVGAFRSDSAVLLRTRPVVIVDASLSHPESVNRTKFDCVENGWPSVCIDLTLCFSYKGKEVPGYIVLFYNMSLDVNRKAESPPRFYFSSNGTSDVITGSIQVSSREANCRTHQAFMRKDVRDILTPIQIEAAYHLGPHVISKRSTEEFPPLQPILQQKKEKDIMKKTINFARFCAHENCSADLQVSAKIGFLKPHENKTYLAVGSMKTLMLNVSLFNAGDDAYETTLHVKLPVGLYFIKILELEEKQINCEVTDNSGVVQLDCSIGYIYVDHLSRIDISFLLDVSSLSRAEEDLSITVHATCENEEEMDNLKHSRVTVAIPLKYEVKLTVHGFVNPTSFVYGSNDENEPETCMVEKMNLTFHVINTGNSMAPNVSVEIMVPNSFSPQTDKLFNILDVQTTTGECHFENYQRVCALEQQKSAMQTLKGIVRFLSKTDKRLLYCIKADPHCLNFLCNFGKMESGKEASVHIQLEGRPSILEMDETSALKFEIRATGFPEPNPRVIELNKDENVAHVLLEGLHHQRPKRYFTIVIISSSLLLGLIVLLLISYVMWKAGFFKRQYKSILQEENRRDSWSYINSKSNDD
T1 sequence (P05556 21-798): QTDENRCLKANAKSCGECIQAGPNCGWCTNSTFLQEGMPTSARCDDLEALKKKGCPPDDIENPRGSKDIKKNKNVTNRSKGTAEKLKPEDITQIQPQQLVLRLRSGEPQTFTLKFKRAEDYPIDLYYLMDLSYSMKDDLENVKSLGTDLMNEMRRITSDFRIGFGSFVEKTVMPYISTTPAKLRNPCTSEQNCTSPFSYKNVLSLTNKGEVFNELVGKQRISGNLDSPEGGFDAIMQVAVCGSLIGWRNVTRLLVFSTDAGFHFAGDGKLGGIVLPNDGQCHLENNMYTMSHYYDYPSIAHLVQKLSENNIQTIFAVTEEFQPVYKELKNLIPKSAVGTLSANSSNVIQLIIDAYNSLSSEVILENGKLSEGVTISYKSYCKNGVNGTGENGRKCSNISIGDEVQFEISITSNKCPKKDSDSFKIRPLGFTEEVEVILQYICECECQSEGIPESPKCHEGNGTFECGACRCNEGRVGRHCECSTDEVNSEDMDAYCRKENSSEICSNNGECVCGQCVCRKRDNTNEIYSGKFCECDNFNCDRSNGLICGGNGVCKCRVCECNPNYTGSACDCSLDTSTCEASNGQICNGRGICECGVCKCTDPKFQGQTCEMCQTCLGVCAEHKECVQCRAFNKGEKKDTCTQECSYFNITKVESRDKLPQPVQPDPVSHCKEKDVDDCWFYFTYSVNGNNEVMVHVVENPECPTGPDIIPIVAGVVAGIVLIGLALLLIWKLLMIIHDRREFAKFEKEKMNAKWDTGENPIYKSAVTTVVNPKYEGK

For `CC(=O)N[C@@H](Cc1ccccc1)C(=O)N[C@@H](CC(C)C)C(=O)N[C@@H](CC(=O)O)C(=O)N[C@H](C(=O)O)C(C)C` [Compound 152] (Ac-FLDV-OH), the IC50 was above 10 µM.

Take `COC(=O)[C@@H](NC(=O)[C@H](CC(=O)O)NC(=O)[C@H](CC(C)C)NC(=O)C1Cc2ccccc2CN1)C(C)C` (stereo partly drawn) [Compound 154] (HELM PEPTIDE1{[O=C(C1Cc2ccccc2CN1)[*:2]].L.D.V.[CO[*:1]]}$$$$V2.0): the IC50 was above 10 µM.

For the compound `CC(C)C[C@H](NC(=O)CCCc1ccccc1)C(=O)N[C@@H](CC(=O)O)C(=O)N[C@H](C(=O)O)C(C)C` [Compound 155], the IC50 was above 10 µM.

Consider `COC(=O)[C@@H](NC(=O)[C@H](CC(=O)O)NC(=O)[C@H](CC(C)C)NC(=O)c1cc2ccccc2cn1)C(C)C` [Compound 156], for which the IC50 lay in the range of 0.05 to 10 µM.

With `CC(C)CNC(=O)[C@H](CC(=O)O)NC(=O)[C@H](CC(C)C)NC(=O)c1cc2ccccc2cn1` [Compound 157], the IC50 lay within 0.05 to 10 µM.

With `CC(C)C[C@H](NC(=O)c1ccc2ccccc2n1)C(=O)N[C@@H](CC(=O)O)C(=O)N[C@H](C(=O)OC(C)(C)C)C(C)C` [Compound 158], the IC50 was above 10 µM.

As for `CC(C)C[C@H](NC(=O)c1ccc2ccccc2n1)C(=O)N[C@@H](CC(=O)OCc1ccccc1)C(=O)N[C@H](C(=O)O)C(C)C` [Compound 159], the IC50 is above 10 µM.

In the case of `CC(C)C[C@H](NC(=O)c1ccc2ccccc2n1)C(=O)N[C@@H](CC(=O)O)C(=O)N[C@@H](CC(=O)O)C(=O)O` [Compound 160], the 50% inhibitory concentration (IC50) was above 10 µM.

As for `CC(C)CNC(=O)[C@H](CC(=O)O)NC(=O)[C@H](CC(C)C)NC(=O)CCCc1ccccc1` [Compound 161], the IC50 is above 10 µM.

With `CC(C)CNC(=O)[C@H](CC(=O)O)NC(=O)[C@H](CC(C)C)NC(=O)CCc1ccccc1` [Compound 162], the IC50 was above 10 µM.

Consider `CC(C)CNC(=O)[C@H](CC(=O)O)NC(=O)[C@H](CC(C)C)NC(=O)CNC(=O)c1ccccc1` [Compound 163], for which the IC50 was above 10 µM.

`CNC(=O)[C@@H](NC(=O)[C@H](CC(=O)O)NC(=O)[C@H](CC(C)C)NC(=O)c1ccc2ccccc2n1)C(C)C` [Compound 164]: the IC50 fell in the range of 0.05 to 10 µM.

As to `COc1ccc(C(=O)N[C@@H](CC(C)C)C(=O)N[C@@H](CC(=O)O)C(=O)NCC(C)C)cc1` [Compound 165], the IC50 is above 10 µM.

Consider `COC(=O)[C@@H](NC(=O)[C@H](CC(=O)O)NC(=O)[C@H](CC(C)C)NC(=O)CCCc1ccccc1)C(C)C` [Compound 166], for which the IC50 is above 10 µM.

For the compound `COC(=O)[C@H](CCSC)NC(=O)[C@@H](NC(=O)[C@H](CC(=O)O)NC(=O)[C@H](CC(C)C)NC(=O)OC(C)(C)C)C(C)C` [Compound 167] (HELM PEPTIDE1{[CC(C)(C)OC(=O)[*:2]].L.D.V.M.[CO[*:1]]}$$$$V2.0), the IC50 was above 10 µM.

In the case of `COC(=O)[C@H](CCSC)NC(=O)[C@@H](NC(=O)[C@H](CC(=O)O)NC(=O)[C@H](CC(C)C)NC(=O)c1ccc2ccccc2n1)C(C)C` [Compound 168] (HELM PEPTIDE1{[O=C(c1ccc2ccccc2n1)[*:2]].L.D.V.M.[CO[*:1]]}$$$$V2.0), the IC50 lay in the range of 0.05 to 10 µM.

Take `CCCCNC(=O)N[C@@H](CC(=O)O)C(=O)N[C@H](C(=O)OC)C(C)C` [Compound 169] ({NHBu-CO}-Asp-Val-OMe): the IC50 was above 10 µM.

For `COC(=O)[C@@H](NC(=O)[C@H](CC(=O)O)NC(=O)[C@H](CC(C)C)NC(=O)c1ccc2ccccc2n1)[C@@H](C)O` [Compound 170], the IC50 is above 10 µM.

Take `CC(C)CNC(=O)[C@H](CC(=O)O)NC(=O)[C@H](CC(C)C)NC(=O)NC(C)(C)C` [Compound 171]: the IC50 is above 10 µM.

With `COC(=O)[C@@H](NC(=O)[C@H](CC(=O)O)NC(=O)CNC(=O)c1ccccc1)C(C)C` [Compound 172] (HELM PEPTIDE1{[O=C(c1ccccc1)[*:2]].G.D.V.[CO[*:1]]}$$$$V2.0), the IC50 was above 10 µM.

For the compound `COC(=O)C[C@H](NC(=O)CNC(=O)c1ccccc1)C(=O)N[C@H](C(=O)OC)C(C)C` [Compound 173] (Bz-Gly-Asp(OMe)-Val-OMe), the IC50 is above 10 µM.

For `CC(C)C[C@H](NC(=O)c1ccc2ccccc2n1)C(=O)N[C@@H](CC(=O)O)C(=O)NC(CO)C(C)C` (stereo partly drawn) [Compound 174], the half-maximal inhibitory concentration (IC50) was in the range of 0.05 to 10 µM.

On to `CC(C)C[C@H](NC(=O)c1ccc2ccccc2n1)C(=O)N[C@@H](CC(=O)O)C(=O)N[C@H](C(=O)N1CCOCC1)C(C)C` [Compound 175], for which the IC50 lay in the range of 0.05 to 10 µM.

Regarding `COC(=O)[C@@H](NC(=O)[C@H](CC(=O)O)NC(=O)[C@H](CC(C)C)NC(=O)Cc1ccc(OC)cc1)[C@@H](C)O` [Compound 176], the IC50 is above 10 µM.

In the case of `COC(=O)[C@@H](NC(=O)[C@H](CC(=O)O)NC(=O)[C@H](CC(C)C)NS(=O)(=O)c1ccc(OC)cc1)[C@@H](C)O` [Compound 177], the IC50 was above 10 µM.

For the compound `CNC(=O)[C@@H](NC(=O)[C@H](CC(=O)O)NC(=O)[C@H](CC(C)C)N(C)C(=O)c1ccc2ccccc2n1)C(C)C` [Compound 179], the IC50 was above 10 µM.

For the compound `CNC(=O)[C@@H](NC(=O)[C@H](CC(=O)O)NC(=O)[C@H](CC(C)C)N(C)C(=O)Cc1ccccc1)C(C)C` [Compound 180] (HELM PEPTIDE1{[O=C(Cc1ccccc1)[*:2]].[meL].D.V.[CN[*:1]]}$$$$V2.0), the 50% inhibitory concentration (IC50) fell in the range of 0.05 to 10 µM.

As for `CNC(=O)[C@@H](NC(=O)[C@H](CC(=O)O)NC(=O)[C@H](CC(C)C)NC(=O)Cc1ccccc1)C(C)C` [Compound 181] (HELM PEPTIDE1{[O=C(Cc1ccccc1)[*:2]].L.D.V.[CN[*:1]]}$$$$V2.0), the IC50 is above 10 µM.

Regarding `CNC(=O)[C@@H](NC(=O)[C@H](CC(=O)O)NC(=O)[C@H](CC(C)C)N(C)C(=O)CCc1ccccc1)C(C)C` [Compound 182] (HELM PEPTIDE1{[O=C(CCc1ccccc1)[*:2]].[meL].D.V.[CN[*:1]]}$$$$V2.0), the IC50 was above 10 µM.

For `CNC(=O)[C@@H](NC(=O)[C@H](CC(=O)O)NC(=O)[C@H](CCSC)NC(=O)Cc1ccccc1)C(C)C` [Compound 183] (HELM PEPTIDE1{[O=C(Cc1ccccc1)[*:2]].M.D.V.[CN[*:1]]}$$$$V2.0), the IC50 is above 10 µM.

Turning to `CNC(=O)[C@@H](NC(=O)[C@H](CC(=O)O)NC(=O)[C@H](CC(C)C)NC(=O)Nc1ccccc1)C(C)C` [Compound 187] ({NHPh-CO}-Leu-Asp-Val-NHMe), the half-maximal inhibitory concentration (IC50) was above 10 µM.

Consider `CNC(=O)[C@@H](NC(=O)[C@H](CC(=O)O)NC(=O)[C@H](CC(C)C)N(C)C(=O)Cc1ccc(O)cc1)C(C)C` [Compound 188], for which the half-maximal inhibitory concentration (IC50) is above 10 µM.

Turning to `CNC(=O)[C@@H](NC(=O)[C@H](CC(=O)O)NC(=O)[C@H](CC(C)C)NS(=O)(=O)c1ccccc1)C(C)C` [Compound 189], the 50% inhibitory concentration (IC50) is above 10 µM.

In the case of `COC(=O)[C@@H](NC(=O)[C@H](CC(=O)O)NC(=O)[C@H](CC(C)C)NC(=O)Cc1ccccc1)[C@@H](C)OC` [Compound 190] (PhAc-Leu-Asp-Thr(Me)-OMe), the 50% inhibitory concentration (IC50) is above 10 µM.

Take `COC(=O)[C@@H](NC(=O)[C@H](CC(=O)O)NC(=O)[C@H](CC(C)C)NC(=O)Cc1ccccc1)[C@@H](C)O` [Compound 191] (HELM PEPTIDE1{[O=C(Cc1ccccc1)[*:2]].L.D.T.[CO[*:1]]}$$$$V2.0): the IC50 is above 10 µM.

Consider `COC(=O)[C@@H](NC(=O)[C@H](CC(=O)O)NC(=O)[C@H](CC(C)C)NC(=O)Cc1ccccc1)[C@@H](C)OCc1ccccc1` [Compound 192] (PhAc-Leu-Asp-Thr(Bn)-OMe), for which the IC50 lay in the range of 0.05 to 10 µM.

For `COC(=O)[C@@H](NC(=O)[C@H](CC(=O)O)NC(=O)[C@H](CC(C)C)NC(=O)Cc1ccccc1)[C@@H](C)OC(C)=O` [Compound 193] (PhAc-Leu-Asp-Thr(Ac)-OMe), the half-inhibitory concentration (IC50) was above 10 µM.

Turning to `CCCCOC(=O)[C@@H](NC(=O)[C@H](CC(=O)O)NC(=O)[C@H](CC(C)C)NC(=O)c1ccc2ccccc2n1)[C@@H](C)O` [Compound 195], the IC50 is above 10 µM.

Turning to `CCCCOC(=O)[C@@H](NC(=O)[C@H](CC(=O)O)NC(=O)[C@H](CC(C)C)NC(=O)Cc1ccccc1)C(C)C` [Compound 196], the IC50 is above 10 µM.

`COc1ccc(CNC(=O)[C@@H](NC(=O)[C@H](CC(=O)O)NC(=O)[C@H](CC(C)C)NC(=O)c2ccc3ccccc3n2)[C@@H](C)O)cc1` [Compound 197]: the IC50 fell in the range of 0.05 to 10 µM.

With `CC(C)C[C@H](NC(=O)c1ccc2ccccc2n1)C(=O)N[C@@H](CC(=O)O)C(=O)NCCC(C)(C)C` [Compound 198], the IC50 was above 10 µM.

Regarding `CC(C)C[C@H](NC(=O)Cc1ccc(NC(=O)Nc2ccccc2)cc1)C(=O)N[C@@H](CC(=O)O)C(=O)N[C@H](C(=O)N1CCC[C@H]1C(N)=O)C(C)C` [Compound 201] ({NHPh-CO}-[X2]LDVP-NH2), the half-inhibitory concentration (IC50) was 0.05 to 10 µM.

`CC(C)C[C@H](NC(=O)Cc1ccc(NC(=O)Nc2ccccc2)cc1)C(=O)N[C@@H](CC(=O)O)C(=O)N[C@H](C(=O)O)C(C)C` [Compound 203]: the half-inhibitory concentration (IC50) was below 0.05 µM.

With `CNC(=O)[C@@H](NC(=O)[C@H](CC(=O)O)NC(=O)[C@H](CC(C)C)NC(=O)Cc1ccc(NC(=O)Nc2ccccc2)cc1)C(C)C` [Compound 204], the IC50 was in the range of 0.05 to 10 µM.

`CC(C)CNC(=O)[C@@H](NC(=O)[C@H](CC(=O)O)NC(=O)[C@H](CC(C)C)NC(=O)Cc1ccc(NC(=O)Nc2ccccc2)cc1)C(C)C` [Compound 205]: the IC50 lay within 0.05 to 10 µM.

Consider `CC[C@H](C)[C@H](NC(=O)Cc1ccc(NC(=O)Nc2ccccc2)cc1)C(=O)N[C@@H](CC(=O)O)C(=O)N[C@H](C(=O)N1CCC[C@H]1C(N)=O)C(C)C` [Compound 209] ({NHPh-CO}-[X2]IDVP-NH2), for which the IC50 lay in the range of 0.05 to 10 µM.

On to `CC(C)CC(NC(=O)Cc1ccc(NC(=O)Nc2ccccc2)cc1)C(=O)NC(CC(=O)O)C(=O)NC(C(=O)N1CCCC1C(N)=O)C(C)C` (stereo not drawn) [Compound 211] ({NHPh-CO}-[X2]LDVP-NH2; configuration not given here), for which the IC50 is 0.05 to 10 µM.

For the compound `CC(C)C[C@H](NC(=O)Cc1ccc(NC(=O)Nc2ccccc2)cc1)C(=O)N[C@@H](CC(=O)O)C(=O)NCc1ccccc1` [Compound 213], the IC50 was in the range of 0.05 to 10 µM.
